Results reported in patent publication US20260297542A1, “HERBICIDE RESISTANT PLANTS” (SYNGENTA CROP PROTECTION AG, priority 2023, published 2026).
Residue numbers refer to the chain shown, from its start.

Legend:
[1] = molecular target: T1, AtPPO1 V365L Y426V L479N (SEQ ID NO.126) (Arabidopsis thaliana, UniProt P55826, L479N/V365L/Y426V); assay: fluorescent Protoporphyrinogen Oxidase assay, crude extract; type: biochemical; settings: read-out: percentage inhibition
T1 construct: made in house; host or cells: E. coli BL21 (DE3) hemG, crude extract
T1 sequence (P55826 35-537 V365L/Y426V/L479N): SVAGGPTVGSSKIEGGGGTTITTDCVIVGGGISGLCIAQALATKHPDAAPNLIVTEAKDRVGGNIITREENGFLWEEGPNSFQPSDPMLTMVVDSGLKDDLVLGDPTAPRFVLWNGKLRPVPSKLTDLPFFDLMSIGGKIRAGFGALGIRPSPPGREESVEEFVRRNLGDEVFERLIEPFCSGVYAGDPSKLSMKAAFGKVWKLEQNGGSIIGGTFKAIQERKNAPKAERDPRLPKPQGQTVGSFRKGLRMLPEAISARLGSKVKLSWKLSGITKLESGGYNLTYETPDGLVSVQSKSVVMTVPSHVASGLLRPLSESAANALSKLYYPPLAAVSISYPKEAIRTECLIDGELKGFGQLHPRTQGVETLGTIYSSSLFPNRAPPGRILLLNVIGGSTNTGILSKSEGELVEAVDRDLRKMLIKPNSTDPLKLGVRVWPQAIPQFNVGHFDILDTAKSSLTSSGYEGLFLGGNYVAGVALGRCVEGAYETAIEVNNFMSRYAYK

[2] = molecular target: T2, AtPPO1 V365L G404A L479N (SEQ ID NO.136) (Arabidopsis thaliana, UniProt P55826, G404A/L479N/V365L); assay: as above; type: biochemical; settings: read-out: percentage inhibition
T2 construct: made in house; host or cells: E. coli BL21 (DE3) hemG, crude extract
T2 sequence (P55826 35-537 V365L/G404A/L479N): T1 sequence (P55826 35-537 V365L/Y426V/L479N) with G370A, V392Y

| SMILES | inhibition at 0.1 ppm [1] [%] | inhibition at 1 ppm [1] [%] | inhibition at 10 ppm [1] [%] | inhibition at 100 ppm [1] [%] | inhibition at 0.1 ppm [2] [%] | inhibition at 1 ppm [2] [%] | inhibition at 10 ppm [2] [%] | inhibition at 100 ppm [2] [%] |
| --- | --- | --- | --- | --- | --- | --- | --- | --- |
| CCOC(=O)COc1ncccc1Oc1cc(-n2c(=O)cc(C(F)(F)F)n(C)c2=O)c(F)cc1Cl [Herbicide A, epyrifenacil] | 0 | 36 | 73 | 90 | 58 | 95 | 100 | 100 |
| C#CCN1C(=O)C(F)(F)Oc2cc(F)c(-n3c(=O)n(C)c(=S)n(C)c3=O)cc21 [Herbicide B, trifludimoxazin] | 98 | 100 | 100 | 100 | 79 | 100 | 100 | 100 |
| CCOC(=O)C1(C)CC(c2cc(-n3c(=O)cc(C(F)(F)F)n(C)c3=O)c(F)cc2Cl)=NO1 (stereo not shown) [Herbicide C, 3-(2-chloro-4-fluoro-5-(3-methyl-2,6-dioxo-4-trifluoromethyl-3,6-dihydropyrimidin-1(2H)-yl)phenyl)-5-methyl-4,5-dihydroisoxazole-5-carboxylic acid ethyl ester] | 4 | 44 | 82 | 93 | 34 | 90 | 99 | 100 |
| CCOC(=O)[C@]1(C)CC(c2cc(-n3c(=O)n(C)c(=S)n(C)c3=O)c(F)cc2Cl)=NO1 [Herbicide D, ethyl (5S)-3-[2-chloro-5-(3,5-dimethyl-2,6-dioxo-4-thioxo-1,3,5-triazinan-1-yl)-4-fluoro-phenyl]-5-methyl-4H-isoxazole-5-carboxylate] | 12 | 33 | 89 | 98 | 4 | 75 | 99 | 100 |
| CC(C)N(C)S(=O)(=O)NC(=O)c1cc(-n2c(=O)cc(C(F)(F)F)n(C)c2=O)c(F)cc1Cl [Herbicide E, saflufenacil] | 0 | 22 | 77 | 94 | 0 | 39 | 86 | 100 |
